# Test results as given in PMC10746112, “Synthesis and Pro-Apoptotic Effects of Nitrovinylanthracenes and Related Compounds in Chronic Lymphocytic Leukaemia (CLL) and Burkitt’s Lymphoma (BL)” (Molecules, 2023).
# pIC50: −log10 of the molar value.
# System: MUTU-1 cells
# Assay: not given
# Set-up: method as in earlier work
# Settings: nitrostyrenes and taxol, MTT assay, reported data; cited from earlier work
row,SMILES,pIC50
1,CC/C(=C\c1ccc(Cl)cc1)[N+](=O)[O-] [Compound 11l],5.93

# System: PGA-1 CLL cell line
# Assay: alamarBlue cell viability assay
# Settings: CLL cell, 24 h, read-out: % Viability PGA-1, 10 µM, 24 h
row,SMILES,viability at 10 µM [%]
1,"O=[N+]([O-])CCc1c2ccccc2cc2ccccc12 [Compound 22, 9-(2-Nitroethyl)Anthracene]",75
2,"O=[N+]([O-])C=CCc1c2ccccc2cc2ccccc12 [Compound 20a, 9-(3-Nitroallyl)Anthracene]",> 50

# System: MUTU-I Burkitt’s lymphoma cell line
# Assay: not given
# Settings: human, 24 h, 10 µM
row,SMILES,% Viable Cells Remaining MUTU-1 [%]
1,"c1ccc2c(-c3c[nH]nn3)c3ccccc3cc2c1 [Compound 30a, 4-(anthracen-9-yl)-1H-1,2,3-triazole]",94.5
2,"O=[N+]([O-])CCc1c2ccccc2cc2ccccc12 [Compound 22, 9-(2-Nitroethyl)Anthracene]",100.6

# System: MUTU-I Burkitt’s lymphoma cell line
# Assay: not given
# Settings: nitrostyrenes, 10 µM, 24 h; cited from earlier work
row,SMILES,% Viable Cells Remaining MUTU-1 24 h 10 µM [%]
1,CC/C(=C\c1ccc(Cl)cc1)[N+](=O)[O-] [Compound 11l],2.61

# System: DG-75 BL cells
# Assay: Annexin V/PI apoptotic assay (FACS)
# Assay type: cell-based
# Settings: 10 µM, 48 h, total (early + late) apoptosis
# Protocol: (§1) The chemotherapeutic drug taxol was used as a positive control. The pro-apoptotic effects of the selected nitrostyrene compounds 11g, 11h, 11i, 11j, 11k and 11l (10 μM) were determined using FITC (fluorescein isothiocyanate), Annexin V/PI (propidium iodide) staining and FACS (fluorescence-activated cell sorting) analysis to characterise the mode of cellular death induced by the synthesised compounds. Four populations were produced in this assay: Annexin-V- and PI-negative (Q4, healthy cells), Annexin-V-positive and PI-negative (Q3, early apoptosis), Annexin-V- and PI-positive (Q2, late apoptosis) and Annexin-V-negative and PI-positive (Q1, necrosis), which were easily identified and quantified. Apoptosis was assessed as % total apoptosis by a combination of early and late apoptosis (Q3 and Q2, respectively). […] The identification of compounds that can induce apoptosis in cancer cells is required in the development of potential lead structures for anticancer drugs.
# (§2) The BL cells DG-75 and MUTU-I (750,000) were treated at 37 °C with either vehicle (0.1% (v/v) EtOH), […] taxol (10 μM) and incubated for 24 h (MUTU-1) or 48 h (DG-75). The CLL cells PGA1 and HG3 (1 × 10^6 cells/mL) were treated at 37 °C with either vehicle (1% (v/v) DMSO) or the nitrostyrene compounds 19a (10 μM, 5 μM and 1 μM) and 19g, 19i, 19l and 19m (10 μM and 1 μM) for 48 h. The cells were then harvested by centrifugation at 400× g in a temperature-controlled Sorvall centrifuge and rinsed with 0.5 mL of Ca^2+ Annexin-V-binding buffer (0.1 M HEPES, pH 7.4; 0.14 M NaCl; 25 mM CaCl2). The samples were resuspended in 50 µL FITC Annexin V (diluted 1:33 in Ca^2+ Annexin V-binding buffer), incubated on ice for 10 min (protected from light), washed with Annexin-V-binding buffer and re-suspended in 500 µL of propidium iodide (PI) solution (0.5 µg/mL). The samples were analysed within 1 h using a BD Accuri C6 flow cytometer counting 10,000 cells and analysed using the FlowJo software (FlowJo LLC, Ashland, OR, USA) package.
row,SMILES,DG-75 Apoptosis (%)
1,CC/C(=C\c1ccc(Cl)cc1)[N+](=O)[O-] [Compound 11l],85.0

# System: MUTU-I BL cells
# Assay: Annexin V/PI apoptotic assay (FACS)
# Assay type: cell-based
# Settings: 10 µM, 24 h, total (early + late) apoptosis
# Protocol: as §1, §2
row,SMILES,MUTU-I Apoptosis (%)
1,CC/C(=C\c1ccc(Cl)cc1)[N+](=O)[O-] [Compound 11l],91.3

# System: DG-75 Burkitt’s lymphoma cell line
# Assay: alamarBlue cell viability assay
# Settings: Homo sapiens, DG-75, 48 h, read-out: % Viable Cells Remaining DG-75, 1 µM, 48 h
row,SMILES,viability at 1 µM [%]
1,"c1ccc2c(-c3c[nH]nn3)c3ccccc3cc2c1 [Compound 30a, 4-(anthracen-9-yl)-1H-1,2,3-triazole]",104
2,"O=[N+]([O-])CCc1c2ccccc2cc2ccccc12 [Compound 22, 9-(2-Nitroethyl)Anthracene]",86.7
3,"O=[N+]([O-])C=CCc1c2ccccc2cc2ccccc12 [Compound 20a, 9-(3-Nitroallyl)Anthracene]",99.9

# Same assay, conditions: Homo sapiens, DG-75, 48 h, read-out: % Viable Cells Remaining DG-75, 10 µM, 48 h
row,SMILES,viability at 10 µM [%]
1,"c1ccc2c(-c3c[nH]nn3)c3ccccc3cc2c1 [Compound 30a, 4-(anthracen-9-yl)-1H-1,2,3-triazole]",> 90
2,"O=[N+]([O-])CCc1c2ccccc2cc2ccccc12 [Compound 22, 9-(2-Nitroethyl)Anthracene]",> 85
3,"O=[N+]([O-])C=CCc1c2ccccc2cc2ccccc12 [Compound 20a, 9-(3-Nitroallyl)Anthracene]",79 to 97

# System: DG-75 Burkitt’s lymphoma cell line
# Assay: not given
# Settings: human, 48 h, 10 µM
row,SMILES,% Viable Cells Remaining DG-75 [%]
1,"c1ccc2c(-c3c[nH]nn3)c3ccccc3cc2c1 [Compound 30a, 4-(anthracen-9-yl)-1H-1,2,3-triazole]",94.86
2,"O=[N+]([O-])CCc1c2ccccc2cc2ccccc12 [Compound 22, 9-(2-Nitroethyl)Anthracene]",99.08
3,"O=[N+]([O-])C=CCc1c2ccccc2cc2ccccc12 [Compound 20a, 9-(3-Nitroallyl)Anthracene]",79.71

# System: MUTU-I Burkitt’s lymphoma cell line
# Assay: alamarBlue cell viability assay
# Settings: MUTU-I, 24 h, read-out: % Viable Cells Remaining MUTU-1, 1 µM, 24 h
row,SMILES,viability at 1 µM [%]
1,"c1ccc2c(-c3c[nH]nn3)c3ccccc3cc2c1 [Compound 30a, 4-(anthracen-9-yl)-1H-1,2,3-triazole]",94.9
2,"O=[N+]([O-])CCc1c2ccccc2cc2ccccc12 [Compound 22, 9-(2-Nitroethyl)Anthracene]",105
3,"O=[N+]([O-])C=CCc1c2ccccc2cc2ccccc12 [Compound 20a, 9-(3-Nitroallyl)Anthracene]",106

# Same assay, conditions: MUTU-I, 24 h, read-out: % Viable Cells Remaining MUTU-1, 10 µM, 24 h
row,SMILES,viability at 10 µM [%]
1,"c1ccc2c(-c3c[nH]nn3)c3ccccc3cc2c1 [Compound 30a, 4-(anthracen-9-yl)-1H-1,2,3-triazole]",> 90
2,"O=[N+]([O-])CCc1c2ccccc2cc2ccccc12 [Compound 22, 9-(2-Nitroethyl)Anthracene]",> 85

# System: not given
# Assay: not given
# Settings: not given
row,SMILES,melting point [°C]
1,"O=[N+]([O-])CCc1c2ccccc2cc2ccccc12 [Compound 22, 9-(2-Nitroethyl)Anthracene]",147 to 149

# System: HG-3 CLL cell line
# Assay: alamarBlue cell viability assay
# Settings: CLL cell, 24 h, read-out: % Viability HG-3, 10 µM, 24 h
row,SMILES,viability at 10 µM [%]
1,"O=[N+]([O-])CCc1c2ccccc2cc2ccccc12 [Compound 22, 9-(2-Nitroethyl)Anthracene]",76

# System: DG-75 cells
# Assay: not given
# Set-up: method as in earlier work
# Settings: nitrostyrenes and taxol, MTT assay, reported data; cited from earlier work
row,SMILES,pIC50
1,CC/C(=C\c1ccc(Cl)cc1)[N+](=O)[O-] [Compound 11l],5.51
